# Activity calls are given as the source filed them. The rule behind the calls is not given here.
# Experiments:
# Rattus norvegicus [1] = assay: (§1) Antidiabetic activity in high fat diet-STZ induced diabetic Wistar rat model assessed as protection against replacement of hepatocellular necrosis with inflammatory cells at 10 mg/kg, ip pretreated with high fat diet for 4 weeks followed by 8 hrs fasting after STZ administration and measured 4 weeks after compound treatment by hematoxylin and eosin staining based microscopic analysis; assay type: functional, organism-based
# Rattus norvegicus [2] = assay: (§2) Antidiabetic activity in ip dosed high fat diet-STZ induced diabetic Wistar rat model assessed as reduction of ZBP1 mRNA expression in kidney pretreated with high fat diet for 4 weeks followed by 8 hrs fasting after STZ administration and measured 4 weeks after compound treatment by RT-qPCR analysis; assay type: functional, organism-based; conditions: dose 10-30 mg/kg
# Rattus norvegicus [3] = assay: as §1, with “organized histological features” for “protection against replacement”, “hepatic parenchyma” for “hepatocellular necrosis with inflammatory cells”, “30” for “10”; assay type: functional, organism-based
# Rattus norvegicus [4] = assay: as §1, with “reduction in” for “protection against replacement of hepatocellular necrosis with”, “cell infiltrates in liver” for “cells”, “30” for “10”; assay type: functional, organism-based
# Rattus norvegicus [5] = assay: (§3) Antidiabetic activity in high fat diet-STZ induced diabetic Wistar rat model assessed as creatinine level at 10 mg/kg, ip pretreated with high fat diet for 4 weeks followed by 8 hrs fasting after STZ administration and measured 4 weeks after compound treatment (reference value: 3.88 +/- 0.502 mg%); assay type: functional
# Rattus norvegicus [6] = assay: (§4) Antidiabetic activity in high fat diet-STZ induced diabetic Wistar rat model assessed as HOMA-IR level at 20 mg/kg, ip pretreated with high fat diet for 4 weeks followed by 8 hrs fasting after STZ administration and measured 4 weeks after compound treatment (reference value: 21.51 +/- 2.17); assay type: functional
# Rattus norvegicus [7] = assay: as §2, with “adipose tissue” for “kidney”; assay type: functional, organism-based; conditions: dose 10-30 mg/kg
# Rattus norvegicus [8] = assay: as §4, with “insulin” for “HOMA-IR”, “level in serum” for “level”, “30” for “20”, “treatment by ELISA” for “treatment”, “16.53” for “21.51”, “1.14 microU/ml)” for “2.17)”; assay type: functional
# Rattus norvegicus [9] = assay: as §4, with “glucose” for “HOMA-IR”, “level in serum” for “level”, “527.7” for “21.51”, “49.1 mg%)” for “2.17)”; assay type: functional
# Rattus norvegicus [10] = assay: as §1, with “reduction in tubular dilation in kidney” for “protection against replacement of hepatocellular necrosis with inflammatory cells”, “30” for “10”; assay type: functional, organism-based
# Rattus norvegicus [11] = assay: (§5) Antidiabetic activity in high fat diet-STZ induced diabetic Wistar rat model assessed as mean area percentage of TNFalpha in kidney at 10 mg/kg, ip pretreated with high fat diet for 4 weeks followed by 8 hrs fasting after STZ administration and measured after 4 weeks of compound treatment by immunohistochemistry based microscopic analysis (reference value: 24 +/- 1.5 %); assay type: functional
# Rattus norvegicus [12] = assay: as §1, with “intact tubular segments in kidney” for “protection against replacement of hepatocellular necrosis with inflammatory cells”, “20 to 30” for “10”; assay type: functional, organism-based; conditions: dose 20-30 mg/kg
# Rattus norvegicus [13] = assay: as §5, with “TNF alpha” for “TNFalpha”, “liver” for “kidney”, “20” for “10”, “18.28” for “24”, “1.31” for “1.5”; assay type: functional
# Rattus norvegicus [14] = assay: as §1, with “periportal mononuclear” for “replacement of hepatocellular necrosis with”, “cell infiltration in liver” for “cells”; assay type: functional, organism-based
# Rattus norvegicus [15] = assay: as §3, with “LDL-cholesterol” for “creatinine”, “6.54” for “3.88”, “0.918 mmol/L)” for “0.502 mg%)”; assay type: functional
# Rattus norvegicus [16] = assay: as §5, with “LC3B” for “TNFalpha”, “liver” for “kidney”, “20” for “10”, “0.742” for “24”, “0.143” for “1.5”; assay type: functional
# Rattus norvegicus [17] = assay: as §1, with “reduction in epididymal adipocyte cell size in adipose tissue” for “protection against replacement of hepatocellular necrosis with inflammatory cells”, “20 to 30” for “10”; assay type: functional, organism-based; conditions: dose 20-30 mg/kg
# Rattus norvegicus [18] = assay: as §1, with “preserved integrity” for “protection against replacement”, “tubular epithelium in kidney” for “hepatocellular necrosis with inflammatory cells”, “20 to 30” for “10”; assay type: functional, organism-based; conditions: dose 20-30 mg/kg
# Rattus norvegicus [19] = assay: as §1, with “reduction in adipocyte diameter in adipose tissue” for “protection against replacement of hepatocellular necrosis with inflammatory cells”; assay type: functional, organism-based
# Rattus norvegicus [20] = assay: as §2, with “miR-1976” for “ZBP1 mRNA”, “adipose tissue” for “kidney”; assay type: functional, organism-based; conditions: dose 10-30 mg/kg
# Rattus norvegicus [21] = assay: as §1, with “reduction in” for “protection against replacement of hepatocellular necrosis with”, “infiltrates in kidney” for “cells”, “20” for “10”; assay type: functional, organism-based
# Rattus norvegicus [22] = assay: as §5, with “LC3B” for “TNFalpha”, “liver” for “kidney”, “0.742” for “24”, “0.143” for “1.5”; assay type: functional
# Rattus norvegicus [23] = assay: Antidiabetic activity in high fat diet-STZ induced diabetic Wistar rat model assessed as creatinine level at 30 mg/kg, ip pretreated with high fat diet for 4 weeks followed by 8 hrs fasting after STZ administration and measured 4 weeks after compound treatment (reference value: 3.88 +/- 0.502 mg%); assay type: functional
# Rattus norvegicus [24] = assay: Antidiabetic activity in high fat diet-STZ induced diabetic Wistar rat model assessed as urine albumin to creatinine ratio at 10 mg/kg, ip pretreated with high fat diet for 4 weeks followed by 8 hrs fasting after STZ administration and measured 4 weeks after compound treatment (reference value: 87.13 +/- 9.75 mg/g); assay type: functional
# Rattus norvegicus [25] = assay: Antidiabetic activity in high fat diet-STZ induced diabetic Wistar rat model assessed as AST level at 10 mg/kg, ip pretreated with high fat diet for 4 weeks followed by 8 hrs fasting after STZ administration and measured 4 weeks after compound treatment (reference value: 136.3 +/- 22.8 IU/L); assay type: functional
# Rattus norvegicus [26] = assay: as §4, with “insulin” for “HOMA-IR”, “level in serum” for “level”, “treatment by ELISA” for “treatment”, “16.53” for “21.51”, “1.14 microU/ml)” for “2.17)”; assay type: functional
# Rattus norvegicus [27] = assay: Antidiabetic activity in high fat diet-STZ induced diabetic Wistar rat model assessed as AST level at 30 mg/kg, ip pretreated with high fat diet for 4 weeks followed by 8 hrs fasting after STZ administration and measured 4 weeks after compound treatment (reference value: 136.3 +/- 22.8 IU/L); assay type: functional
# Rattus norvegicus [28] = assay: Antidiabetic activity in high fat diet-STZ induced diabetic Wistar rat model assessed as ALT level at 20 mg/kg, ip pretreated with high fat diet for 4 weeks followed by 8 hrs fasting after STZ administration and measured 4 weeks after compound treatment (reference value: 152.1 +/- 23.64 IU/L); assay type: functional
# Rattus norvegicus [29] = assay: as §2, with “STING” for “ZBP1”; assay type: functional, organism-based; conditions: dose 10-30 mg/kg
# Rattus norvegicus [30] = assay: as §1, with “intact hepatocytes” for “protection against replacement of hepatocellular necrosis with inflammatory cells”, “30” for “10”; assay type: functional, organism-based
# Rattus norvegicus [31] = assay: Antidiabetic activity in ip dosed high fat diet-STZ induced diabetic Wistar rat model assessed as reduction of miR-1976 expression in liver pretreated with high fat diet for 4 weeks followed by 8 hrs fasting after STZ administration and measured 4 weeks after compound treatment by RT-qPCR analysis; assay type: functional, organism-based; conditions: dose 10-30 mg/kg
structure (smiles),measurement,setting,value
O[C@@H]1[C@@H](O)[C@H](OC/C=C/c2ccccc2)O[C@H](CO[C@@H]2OC[C@H](O)[C@H](O)[C@H]2O)[C@H]1O,Activity,Rattus norvegicus [1],inactive
same,Activity,Rattus norvegicus [2],Dose-Dependent Effect
same,Activity,Rattus norvegicus [3],Active
same,Activity,Rattus norvegicus [4],Active
same,Activity,Rattus norvegicus [5],2.12 mg%
same,Activity,Rattus norvegicus [6],2.76
same,Activity,Rattus norvegicus [7],Dose-Dependent Effect
same,Activity,Rattus norvegicus [8],5.64 uU/ml
same,Activity,Rattus norvegicus [9],174.8 mg%
same,Activity,Rattus norvegicus [10],Active
same,Activity,Rattus norvegicus [11],16.98%
same,Activity,Rattus norvegicus [12],Active
same,Activity,Rattus norvegicus [13],8.75%
same,Activity,Rattus norvegicus [14],inactive
same,Activity,Rattus norvegicus [15],3.19 mmol/L
same,Activity,Rattus norvegicus [16],2.35%
same,Activity,Rattus norvegicus [17],Active
same,Activity,Rattus norvegicus [18],Active
same,Activity,Rattus norvegicus [19],inactive
same,Activity,Rattus norvegicus [20],Dose-Dependent Effect
same,Activity,Rattus norvegicus [21],Active
same,Activity,Rattus norvegicus [22],2.22%
same,Activity,Rattus norvegicus [23],0.769 mg%
same,Activity,Rattus norvegicus [24],50.75 mg/g
same,Activity,Rattus norvegicus [25],83.63 IU/L
same,Activity,Rattus norvegicus [26],6.4 uU/ml
same,Activity,Rattus norvegicus [27],30.25 IU/L
same,Activity,Rattus norvegicus [28],42.38 IU/L
same,Activity,Rattus norvegicus [29],Dose-Dependent Effect
same,Activity,Rattus norvegicus [30],Active
same,Activity,Rattus norvegicus [31],Dose-Dependent Effect

# From ChEMBL document CHEMBL5532761, “Rosavin improves insulin resistance and alleviates hepatic and kidney damage via modulating the cGAS-STING pathway and autophagy signaling in HFD/STZ-induced T2DM animals” (2024)
